Target: Mpa (mycobacterial proteasome ATPase) (Mycobacterium tuberculosis, UniProt P9WQN5)
Test: […]
Assay type: binding

Sequence of Mpa (mycobacterial proteasome ATPase) (P9WQN5 whole entry): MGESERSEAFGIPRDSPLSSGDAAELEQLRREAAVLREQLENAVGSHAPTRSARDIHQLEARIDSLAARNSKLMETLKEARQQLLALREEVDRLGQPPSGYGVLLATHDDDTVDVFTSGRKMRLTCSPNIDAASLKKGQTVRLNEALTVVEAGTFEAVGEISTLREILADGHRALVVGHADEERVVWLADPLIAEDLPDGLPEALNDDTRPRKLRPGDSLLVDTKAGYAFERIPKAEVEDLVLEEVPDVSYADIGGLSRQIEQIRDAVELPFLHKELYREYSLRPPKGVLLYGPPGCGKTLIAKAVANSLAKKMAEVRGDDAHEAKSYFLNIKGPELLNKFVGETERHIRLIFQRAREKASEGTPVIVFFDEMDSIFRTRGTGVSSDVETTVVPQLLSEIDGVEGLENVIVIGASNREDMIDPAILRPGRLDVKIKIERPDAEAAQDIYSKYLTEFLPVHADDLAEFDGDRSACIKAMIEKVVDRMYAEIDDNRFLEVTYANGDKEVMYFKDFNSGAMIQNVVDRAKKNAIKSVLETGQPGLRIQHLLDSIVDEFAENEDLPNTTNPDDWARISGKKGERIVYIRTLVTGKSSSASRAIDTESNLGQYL

| SMILES | Kd [nM] |
| --- | --- |
| c1ccc(N=NN2CCOCC2)cc1 [MTBA, NSC 136065] | 1 ± 0.1 |
| Cn1cnc2ncnn2c1=S [MTBB, NSC 145180] | 400 ± 100 |

Source: PMC5856640 (ACS chemical biology, 2018)
